Tests used:
Septoria tritici [1] = experiment: Example F-A: in vivo preventive Septoria tritici test (wheat); conditions: Zymoseptoria tritici, 504 h, evaluated 21 days after inoculation, read-out: Efficacy in % Example F-A
Description: Example F: In Vivo Septoria tritici Test (Wheat); Comparison of Pyridinyloxy-Pyridyl Compounds According to the Invention Vs. Compounds Known from WO-A 2010/146116 [table] To produce a suitable preparation of active compound, 1 part by weight of active compound or active compound combination is mixed with the stated amounts of solvent and emulsifier, and the concentrate is diluted with water to the desired concentration. Example F-A: In Vivo Preventive Septoria tritici Test (Wheat) To test for preventive activity, young plants are sprayed with the preparation of active compound or active compound combination at the stated rate of application. After the spray coating has been dried, the plants are sprayed with a spore suspension of Septoria tritici. The plants remain for 48 hours in an incubation cabinet at approximately 20° C. and a relative atmospheric humidity of approximately 100% and afterwards for 60 hours at approximately 15° C. in a translucent incubation cabinet at a relative atmospheric humidity of approximately 100%. The plants are placed in the greenhouse at a temperature of approximately 15° C. and a relative atmospheric humidity of approximately 80%. The test is evaluated 21 days after the inoculation. 0% means an efficacy which corresponds to that of the untreated control, while an efficacy of 100% means that no disease is observed.

Septoria tritici [2] = experiment: Example F-B: in vivo curative Septoria tritici test (wheat); conditions: Zymoseptoria tritici, 504 h, sprayed 48 hours after inoculation, evaluated 21 days after inoculation, read-out: Efficacy in % Example F-B
Description: Example F: In Vivo Septoria tritici Test (Wheat); Comparison of Pyridinyloxy-Pyridyl Compounds According to the Invention Vs. Compounds Known from WO-A 2010/146116 [table] To produce a suitable preparation of active compound, 1 part by weight of active compound or active compound combination is mixed with the stated amounts of solvent and emulsifier, and the concentrate is diluted with water to the desired concentration. Example F-B: In Vivo Curative Septoria tritici Test (Wheat) To test for curative activity, young plants are inoculated with a spore suspension of Septoria tritici and remain for 48 hours in an incubation cabinet at a temperature of approximately 20° C. and a relative atmospheric humidity of approximately 100%. 48 hours after the incubation, the plants are sprayed with the preparation of active compound or active compound combination at the stated rate of application. After application the plants remain for 60 hours at a temperature of approximately 15° C. in a translucent incubation cabinet at a relative atmospheric humidity of approximately 100%. Afterwards, the plants are placed in the greenhouse at a temperature of approximately 15° C. and a relative atmospheric humidity of approximately 80%. The test is evaluated 21 days after the inoculation. 0% means an efficacy which corresponds to that of the untreated control, while an efficacy of 100% means that no disease is observed.

Septoria tritici [3] = experiment: Example F-C: in vivo 5 days preventive Septoria tritici test (wheat); conditions: Zymoseptoria tritici, 504 h, inoculated 5 days after spraying, evaluated 21 days after inoculation, read-out: Efficacy in % Example F-C
Description: Example F: In Vivo Septoria tritici Test (Wheat); Comparison of Pyridinyloxy-Pyridyl Compounds According to the Invention Vs. Compounds Known from WO-A 2010/146116 [table] To produce a suitable preparation of active compound, 1 part by weight of active compound or active compound combination is mixed with the stated amounts of solvent and emulsifier, and the concentrate is diluted with water to the desired concentration. Example F-C: In Vivo 5 Days Preventive Septoria tritici Test (Wheat) To test for preventive and long-lasting activity, young plants are sprayed with a preparation of active compound or active compound combination at the stated rate of application. After the spray coating has been dried, the plants are placed in the greenhouse at a temperature of approximately 15° C. and a relative atmospheric humidity of approximately 80%. 5 days later the plants are sprayed with a spore suspension of Septoria tritici. The plants remain for 48 hours in an incubation cabinet at approximately 20° C. and a relative atmospheric humidity of approximately 100% and afterwards for 60 hours at approximately 15° C. in a translucent incubation cabinet at a relative atmospheric humidity of approximately 100%. Then the plants are placed in the greenhouse at a temperature of approximately 15° C. and a relative atmospheric humidity of approximately 80%. The test is evaluated 21 days after the inoculation. 0% means an efficacy which corresponds to that of the untreated control, while an efficacy of 100% means that no disease is observed.

For `Clc1ccc(Oc2cc(Cl)c(C3(Cn4cncn4)OCCO3)cn2)cc1` [reference compound], the pest or weed control at 500 ppm (Septoria tritici [1]) was 89%, the pest or weed control at 500 ppm (Septoria tritici [2]) was 89% and the pest or weed control at 500 ppm (Septoria tritici [3]) was 80%.
